This experiment has as its target T1, Porcine pancreatic α-amylase (Sus scrofa, UniProt P00690).
T1 construct: purchased Sigma-Aldrich (Milan, Italy)
T1 sequence (P00690 16-511): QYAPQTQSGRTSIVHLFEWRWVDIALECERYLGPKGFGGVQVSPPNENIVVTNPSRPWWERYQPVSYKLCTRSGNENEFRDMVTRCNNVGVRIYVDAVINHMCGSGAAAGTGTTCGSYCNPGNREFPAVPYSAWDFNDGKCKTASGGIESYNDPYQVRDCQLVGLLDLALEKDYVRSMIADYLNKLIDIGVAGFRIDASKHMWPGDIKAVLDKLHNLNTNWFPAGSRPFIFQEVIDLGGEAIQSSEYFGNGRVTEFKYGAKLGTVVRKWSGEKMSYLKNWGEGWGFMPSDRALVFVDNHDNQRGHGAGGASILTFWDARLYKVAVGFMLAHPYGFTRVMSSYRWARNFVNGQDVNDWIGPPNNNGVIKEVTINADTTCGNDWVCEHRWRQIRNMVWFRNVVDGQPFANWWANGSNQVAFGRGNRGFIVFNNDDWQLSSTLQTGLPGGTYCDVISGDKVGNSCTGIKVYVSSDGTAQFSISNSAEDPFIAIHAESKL
Nature of the experiment: Pancreatic α-amylase inhibition (modified K-AMYLSD kit, p-nitrophenyl-α-D-maltoheptaoside substrate). It counts as biochemical. As to conditions: for inhibition at 10000 µM: 10 mM final concentration; for Hill cooperativity coefficient (n^H) / Ki: three-parameter Hill equation fit, inhibitor zero to 0.1 mM; for Ki: read-out: Ki^app. As for the experimental part: The monomeric and dimeric stilbenoids described above were tested for their ability to inhibit the enzyme α-amylase, using acarbose as a reference compound. The method used to evaluate the enzyme activity relies on a two-step procedure. In a first step, α-amylase acts on a modified p-nitrophenyl-α-D-maltoheptaoside, releasing products that may be hydrolyzed by an excess α-glucosidase present in the assay mixture, therefore allowing spectrophotometric quantitation of the released p-nitrophenolate anion.
Porcine pancreatic α-amylase [EC 3.2.1.1] was from Sigma-Aldrich (Milan, Italy). Activity was monitored by using the K-AMYLSD kit from Megazyme (Bray, Ireland), with modifications. An aliquot of α-amylase (0.03 mL, 0.1 μM in 50 mM phosphate buffer, pH 6.8) was added to 0.120 mL of 50 mM phosphate buffer, pH 6.8, in a microtiter plate well. The investigated compounds where then added as methanolic solutions (0.03 mL) of appropriate concentration. The reaction was started by adding 0.02 mL of the substrate solution provided with the kit, resulting in a final concentration of 0.4 μM substrate. The kit-provided substrate solution also contained an excess of thermostable bacterial α-glucosidase, that is required for the release of the p-nitrophenolate anion from the p-nitrophenyl glucosides produced by the activity of α-amylase on the chemically modified maltoheptaoside. At appropriate times, the reaction was stopped by adding 0.1 mL of 0.2 M Na2CO3, and the absorbance was read in a microplate reader set at 405 nm. Blanks were prepared in the absence of the pancreatic α-amylase. […] Acarbose (from a stock solution in methanol) was used as the reference inhibitor. A minimum of three independent replications was carried out for each assay.

What is called inhibition is the relative decrease from the control value, in per cent. High values mean strong suppression, low ones little suppression. In the case of `COc1cc(/C=C/c2ccc3c(c2)[C@@H](c2cc(OC)cc(OC)c2)[C@H](c2ccc(O)cc2)O3)cc(OC)c1` (relative stereo) [compound 8, pterostilbene-trans-dihydrodimer], testing at 10000 µM (versus controls with 15% MeOH) gave an inhibition of 28%.

`Oc1ccc([C@@H]2Oc3ccc(/C=C/c4cc(O)cc(O)c4)cc3[C@H]2c2cc(O)cc(O)c2)cc1` [(R, R)-trans-δ-viniferin]: the “Hill cooperativity coefficient (n^H)” value was 1.5 and the Ki is 43 µM.

For the molecule `Oc1ccc(C=Cc2cc(O)cc3c2C(c2cc(O)cc(O)c2)C(c2ccc(O)cc2)O3)cc1` (stereo not drawn) [compound 6, Trans-ε-viniferin], under “versus controls with 15% MeOH”, the inhibition at 10000 µM is ~90%.

With `Oc1ccc([C@H]2Oc3ccc(/C=C/c4cc(O)cc(O)c4)cc3[C@@H]2c2cc(O)cc(O)c2)cc1` [(S, S)-trans-δ-viniferin], the “Hill cooperativity coefficient (n^H)” value was “four” and the Ki stood at 58 µM.

`Oc1ccc([C@@H]2c3c(O)cc(O)cc3[C@H]3[C@H](c4ccc(O)cc4)c4c(O)cc(O)cc4[C@@H]23)cc1` [compound 7, pallidol] came in with an inhibition at 10000 µM (versus controls with 15% MeOH) of 21 to 45%.

As for `Oc1ccc(C2Oc3ccc(C=Cc4cc(O)cc(O)c4)cc3C2c2cc(O)cc(O)c2)cc1` (stereo not drawn) [compound 5, Trans-δ-viniferin], under “versus controls with 15% MeOH”, the inhibition at 10000 µM is ~90%.

`COc1cc(/C=C/c2ccc(O)cc2)cc(OC)c1` [compound 2, pterostilbene]: the inhibition at 10000 µM (versus controls with 15% MeOH) is 21%.

On to `C[C@H]1O[C@H](O[C@H]2[C@H](O)[C@@H](O)[C@@H](O[C@H]3[C@H](O)[C@@H](O)C(O)O[C@@H]3CO)O[C@@H]2CO)[C@H](O)[C@@H](O)[C@@H]1N[C@H]1C=C(CO)[C@@H](O)[C@H](O)[C@H]1O` (stereo partly shown) [acarbose, reference compound], for which, for the setting “1 mM final concentration, versus controls with 15% MeOH”, testing at 1000 µM gave an inhibition of 86%.

The values are drawn from PMC6766848, “Inhibition of Pancreatic α-amylase by Resveratrol Derivatives: Biological Activity and Molecular Modelling Evidence for Cooperativity between Viniferin Enantiomers” (Molecules, 2019).
